Biological target: T1, NcLPMO9F (Neurospora crassa, UniProt Q1K4Q1)
T1 construct: gene gh61-6; recombinant secreted from Pichia pastoris X-33, column purified; 23,200 g/mol
T1 sequence (Q1K4Q1 18-231): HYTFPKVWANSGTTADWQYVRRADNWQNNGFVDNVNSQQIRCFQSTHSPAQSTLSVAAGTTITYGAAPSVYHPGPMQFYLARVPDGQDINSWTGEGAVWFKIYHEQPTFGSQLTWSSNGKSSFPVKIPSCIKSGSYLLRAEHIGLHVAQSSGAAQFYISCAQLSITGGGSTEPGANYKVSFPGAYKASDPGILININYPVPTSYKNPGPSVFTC
Experiment: spectrophotometric peroxidase assay at […] nm (coerulignone formation)
Format: biochemical
Details: H2O2 cosubstrate, standard conditions (30 °C); turnover only

COc1cccc(OC)c1O [2,6-dimethoxyphenol]
specific activity: The peroxidase activity was found for three different LPMOs from two different organisms

Reference: article PMC5865291, “A fast and sensitive activity assay for lytic polysaccharide monooxygenase” (Biotechnology for Biofuels, 2018)
